{"source": "ChEMBL document CHEMBL5537138", "about": "“Identification of a novel potent CDK inhibitor degrading cyclinK with a superb activity to reverse trastuzumab-resistance in HER2-positive breast cancer in vivo” (Eur J Med Chem, 2024)", "assay": "in vitro", "settings": "PAMPA", "description": "Permeability of compound at 12.5 uM incubated for 4 hrs by GIT PAMPA assay"}
{"compound": "CCn1cnc2c(NCc3ccc(-c4ccoc4)nc3)nc(-c3cccnc3)nc21", "values": [{"measurement": "Papp at 4 h, 12.5 µM", "result": 72.4, "unit": "×10⁻⁶ cm/s"}]}
